Legend:
Adenovirus Type-4 = assay: Viral Suspension Assay, Adenovirus Type-4; assay type: cell-based
Description: (§1) The Viral Suspension Assay was used to evaluate the antiviral properties of Alexidine against Adenovirus Type-4, Adenovirus Type-8 and Adenovirus Type-19 and Cytomegalovirus when exposed in suspension for 1, 2, 5, and 10 minutes. The presence of virus (infectivity) was determined by monitoring the virus specific cytopathic effect (CPE) on an appropriate indicator cell line, rabbit kidney. Results are reported as Percent (%) Reduction in virus titer as compared to the corresponding virus control titer (Table 1). The titer of the virus controls were 7.5 log10 following the one minute exposure time; 7.0 log10 following the two minute exposure time; and 7.75 log10 following both the five and ten minute exposure times.

Adenovirus Type-19 = assay: Viral Suspension Assay, Adenovirus Type-19; assay type: cell-based; conditions: for Percent Reduction (%) Adenovirus type 19: 1, 2, 5 and 10 minutes exposure
Description: as §1

[1] = tested on: Herpes simplex virus type 1; assay: HSV-1 Viral Suspension Assay; assay type: cell-based
Description: as §1, with “Herpes simplex virus type 1” for “Adenovirus Type-4, Adenovirus Type-8 and Adenovirus Type-19 and Cytomegalovirus”

Adenovirus Type-8 = assay: Viral Suspension Assay, Adenovirus Type-8; assay type: cell-based
Description: as §1

Cytomegalovirus = assay: Viral Suspension Assay, Cytomegalovirus; assay type: cell-based
Description: as §1

Acanthamoeba keratitis [2] = conditions: in combination with propamidine isothionate (Brolene), hexamidine (Desomodine), or neomycin; cited from earlier work
[3] = tested on: experimental Aspergillus keratitis; conditions: 0.02%; cited from earlier work
Acanthamoeba keratitis [4] = conditions: bilateral case, one treatment per eye; cited from earlier work
[5] = Alexidine 30 ppm, 1 minute exposure
[6] = Alexidine 30 ppm, 5 minutes exposure
[7] = Alexidine 30 ppm, 10 minutes exposure
[8] = Alexidine 99 ppm, 1 minute exposure
[9] = Alexidine 99 ppm, 5 minutes exposure
[10] = Alexidine 99 ppm, 10 minutes exposure
[11] = Alexidine 30 ppm, 2 minutes exposure
[12] = Alexidine 99 ppm, 2 minutes exposure

Compound: CCCCC(CC)CNC(=N)NC(=N)NCCCCCCNC(=N)NC(=N)NCC(CC)CCCC (centres unmarked) [Alexidine, 1,1′-Hexamethylene-bis [5-(2-ethylhexyl)biguanide]]
- Percent Reduction (%) Adenovirus type 4 (Adenovirus Type-4; [5]): 43.8%
- Percent Reduction (%) Adenovirus type 4 (Adenovirus Type-4; [6]): 82.2%
- Percent Reduction (%) Adenovirus type 4 (Adenovirus Type-4; [7]): 68.4%
- Percent Reduction (%) Adenovirus type 4 (Adenovirus Type-4; [8]): 68.4%
- Percent Reduction (%) Adenovirus type 4 (Adenovirus Type-4; [9]): 43.8%
- Percent Reduction (%) Adenovirus type 4 (Adenovirus Type-4; [10]): 68.4%
- effectiveness against Adenovirus Type-4, in words (Adenovirus Type-4; at both 30 ppm and 99 ppm): somewhat effective
- effectiveness against the tested strain of Adenovirus Type-19, in words (Adenovirus Type-19): did not appear to be effective
- Percent Reduction (%) Adenovirus type 19 (Adenovirus Type-19; Alexidine 30 ppm): No reduction
- Percent Reduction (%) Adenovirus type 19 (Adenovirus Type-19; Alexidine 99 ppm): No reduction
- antimicrobial potency against Herpes Simplex-1, summary in words [1]: potent antimicrobial agent
- Percent Reduction of Herpes simplex virus type 1 ([1]; Alexidine 30 ppm, 1 minute exposure in suspension, vs virus control titer): 99.99%
- Percent Reduction of Herpes simplex virus type 1 [1, 11]: 99.99%
- Percent Reduction of Herpes simplex virus type 1 [1, 6]: 99.9994%
- Percent Reduction of Herpes simplex virus type 1 [1, 7]: ≧100%
- Percent Reduction of Herpes simplex virus type 1 [1, 8]: 99.999%
- Percent Reduction of Herpes simplex virus type 1 [1, 12]: 99.994%
- Percent Reduction of Herpes simplex virus type 1 [1, 9]: 99.9999%
- Percent Reduction of Herpes simplex virus type 1 [1, 10]: ≧100%
- effectiveness against herpes simplex type-1 virus (HSV-1), in words ([1]; at both 30 ppm and 99 ppm): effective agents
- Percent Reduction (%) Adenovirus type 8 (Adenovirus Type-8; [5]): 96.8%
- Percent Reduction (%) Adenovirus type 8 (Adenovirus Type-8; [11]): 94.4%
- Percent Reduction (%) Adenovirus type 8 (Adenovirus Type-8; [6]): 82.2%
- Percent Reduction (%) Adenovirus type 8 (Adenovirus Type-8; [7]): 90.0%
- Percent Reduction (%) Adenovirus type 8 (Adenovirus Type-8; [8]): 82.2%
- Percent Reduction (%) Adenovirus type 8 (Adenovirus Type-8; [12]): 82.2%
- Percent Reduction (%) Adenovirus type 8 (Adenovirus Type-8; [9]): 90.0%
- Percent Reduction (%) Adenovirus type 8 (Adenovirus Type-8; [10]): 90.0%
- effectiveness against Adenovirus Type-8, in words (Adenovirus Type-8; at both 30 ppm and 99 ppm): somewhat effective
- Percent Reduction (%) Cytomegalovirus (Cytomegalovirus; [5]): 43.8%
- Percent Reduction (%) Cytomegalovirus (Cytomegalovirus; [11]): 68.4%
- Percent Reduction (%) Cytomegalovirus (Cytomegalovirus; [7]): 43.8%
- Percent Reduction (%) Cytomegalovirus (Cytomegalovirus; [8]): 98.2%
- Percent Reduction (%) Cytomegalovirus (Cytomegalovirus; [12]): 99.0%
- Percent Reduction (%) Cytomegalovirus (Cytomegalovirus; [9]): 99.8%
- Percent Reduction (%) Cytomegalovirus (Cytomegalovirus; [10]): 99.98%
- effectiveness against Cytomegalovirus, in words (Cytomegalovirus; at both 30 ppm and 99 ppm): somewhat effective

Compound: N=C(NCCCCCCNC(=N)NC(=N)Nc1ccc(Cl)cc1)NC(=N)Nc1ccc(Cl)cc1 [chlorhexidine gluconate, 1,1′-hexamethylene-bis[5-(p-chlorophenyl)biguanide]]
- response of Acanthamoeba keratitis to treatment (Acanthamoeba keratitis [2]): respond well

Compound: poly(hexamethylene biguanide) [polyhexamethylene biguanide]
- efficacy in experimental Aspergillus keratitis [3]: moderately effective
- treatment of recurrences of Acanthamoeba keratitis (Acanthamoeba keratitis [4]): successfully treated
- response of Acanthamoeba keratitis to treatment (Acanthamoeba keratitis [2]): respond well
